Values joined by “and” are separate entries in the source; they are usually repeats but may differ in a detail not shown here. Identical values can stand only once.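 Interpolation was linear, between the two tested concentrations surrounding the appropriate level; five concentrations were tested over 48 hours in 96-well plates. Abbreviation: GI50, concentration required for 50% inhibition of growth. TGI marks complete inhibition of growth.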
Legend:
Test in all cases: NCI-60 cell line screen, 48 h
786-0 renal = tested on: 786-0 renal
A498 renal = tested on: A498 renal
A549 NSCLC = tested on: A549 NSCLC
ACHN renal = tested on: ACHN renal
BT-549 breast = tested on: BT-549 breast
CCRF-CEM leukemia = tested on: CCRF-CEM leukemia
COLO 205 colon = tested on: COLO 205 colon
DU-145 prostate = tested on: DU-145 prostate
EKVX NSCLC = tested on: EKVX NSCLC
HCC-2998 colon = tested on: HCC-2998 colon
HCT-116 colon = tested on: HCT-116 colon
HCT-15 colon = tested on: HCT-15 colon
HL-60(TB) leukemia = tested on: HL-60(TB) leukemia
HOP-62 NSCLC = tested on: HOP-62 NSCLC
HOP-92 NSCLC = tested on: HOP-92 NSCLC
HS 578T breast = tested on: HS 578T breast
HT29 colon = tested on: HT29 colon
IGROV1 ovarian = tested on: IGROV1 ovarian
K-562 leukemia = tested on: K-562 leukemia
KM12 colon = tested on: KM12 colon
LOX IMVI melanoma = tested on: LOX IMVI melanoma
M14 melanoma = tested on: M14 melanoma
MCF7 breast = tested on: MCF7 breast
MDA-MB-231 breast = tested on: MDA-MB-231 breast
MDA-MB-435 = tested on: MDA-MB-435
MOLT-4 leukemia = tested on: MOLT-4 leukemia
NCI-H226 lung = tested on: NCI-H226 lung
NCI-H23 lung = tested on: NCI-H23 lung
NCI-H460 lung = tested on: NCI-H460 lung
NCI-H522 lung = tested on: NCI-H522 lung
NCI/ADR-RES ovarian = tested on: NCI/ADR-RES ovarian
OVCAR-3 ovarian = tested on: OVCAR-3 ovarian
OVCAR-4 ovarian = tested on: OVCAR-4 ovarian
OVCAR-5 ovarian = tested on: OVCAR-5 ovarian
OVCAR-8 ovarian = tested on: OVCAR-8 ovarian
PC-3 prostate = tested on: PC-3 prostate
RPMI-8226 leukemia = tested on: RPMI-8226 leukemia
RXF 393 renal = tested on: RXF 393 renal
SF-268 CNS = tested on: SF-268 CNS
SF-295 CNS = tested on: SF-295 CNS
SF-539 CNS = tested on: SF-539 CNS
SK-MEL-2 melanoma = tested on: SK-MEL-2 melanoma
SK-MEL-28 melanoma = tested on: SK-MEL-28 melanoma
SK-MEL-5 melanoma = tested on: SK-MEL-5 melanoma
SK-OV-3 ovarian = tested on: SK-OV-3 ovarian
SN12C renal = tested on: SN12C renal
SNB-19 CNS = tested on: SNB-19 CNS
SNB-75 CNS = tested on: SNB-75 CNS
SR leukemia = tested on: SR leukemia
SW-620 colon = tested on: SW-620 colon
TK-10 renal = tested on: TK-10 renal
U251 CNS = tested on: U251 CNS
UACC-257 melanoma = tested on: UACC-257 melanoma
UACC-62 melanoma = tested on: UACC-62 melanoma
UO-31 renal = tested on: UO-31 renal

With COC(=O)C1CCC(NC(=O)c2csc([C@@H](C[C@H](C(C)C)N(C)C(=O)[C@@H](NC(=O)[C@H]3CCCCN3C)C(C)C)OC(C)=O)n2)CC1 (some centres not stated) the GI50 (786-0 renal) was 7.42 nM and 14 nM, the TGI (786-0 renal) was > 33300 nM and the GI50 (A498 renal) was 6.8 nM and 12.6 nM. For the same compound, the TGI (A498 renal) was 127 nM, the GI50 (A549 NSCLC) was 8.59 nM and 21 nM and the TGI (A549 NSCLC) was > 33300 nM. The GI50 (ACHN renal) was 279 nM, the TGI (ACHN renal) was > 33300 nM and the GI50 (BT-549 breast) was 9.9 nM and 20 nM. The TGI (BT-549 breast) was 791 nM and 225 nM, the GI50 (CCRF-CEM leukemia) was 4.07 nM and 10.7 nM and the TGI (CCRF-CEM leukemia) was > 33300 nM. The GI50 (COLO 205 colon) was 3.59 nM and 12.1 nM, the TGI (COLO 205 colon) was 14.1 nM and 78.4 nM and the GI50 (DU-145 prostate) was 4.06 nM and 9.67 nM. For the same compound, the TGI (DU-145 prostate) was 28.9 nM, the GI50 (EKVX NSCLC) was 15.2 nM and 38.5 nM and the TGI (EKVX NSCLC) was > 33300 nM. The GI50 (HCC-2998 colon) was 32.5 nM and 99.4 nM, the TGI (HCC-2998 colon) was > 33300 nM and the GI50 (HCT-116 colon) was 4.01 nM. The GI50 (HCT-15 colon) was 18.5 nM and 53.6 nM, the TGI (HCT-15 colon) was > 33300 nM and the GI50 (HL-60(TB) leukemia) was 3 nM and 7.35 nM. The TGI (HL-60(TB) leukemia) was 13.6 nM and 18.1 nM, the GI50 (HOP-62 NSCLC) was 5.19 nM and 16 nM and the TGI (HOP-62 NSCLC) was > 33300 nM. For the same compound, the GI50 (HOP-92 NSCLC) was 15.3 nM, the TGI (HOP-92 NSCLC) was 6730 nM and the GI50 (HS 578T breast) was 4.29 nM and 11.1 nM. For the same compound, the TGI (HS 578T breast) was > 33300 nM, the GI50 (HT29 colon) was 3.43 nM and 10.4 nM and the TGI (HT29 colon) was 4200 nM. The GI50 (IGROV1 ovarian) was 11.5 nM and 30.5 nM, the TGI (IGROV1 ovarian) was > 33300 nM and the GI50 (K-562 leukemia) was 2.56 nM and 7.66 nM. For the same compound, the TGI (K-562 leukemia) was > 33300 nM, the GI50 (KM12 colon) was 4.98 nM and 14 nM and the TGI (KM12 colon) was > 33300 nM. The GI50 (LOX IMVI melanoma) was 6.44 nM and 16.4 nM, the TGI (LOX IMVI melanoma) was > 33300 nM and the GI50 (M14 melanoma) was 5.7 nM and 5.52 nM. For the same compound, the TGI (M14 melanoma) was 16.3 nM, the GI50 (MCF7 breast) was 3.09 nM and 12.1 nM and the TGI (MCF7 breast) was > 33300 nM. For the same compound, the GI50 (MDA-MB-231 breast) was 8.63 nM and 24 nM, the GI50 (MDA-MB-435) was 0.404 nM and 3.33 nM and the TGI (MDA-MB-435) was 2.65 nM and 8.57 nM. The GI50 (MOLT-4 leukemia) was 5.74 nM and 14.9 nM, the TGI (MOLT-4 leukemia) was > 33300 nM and the GI50 (NCI-H226 lung) was 12.6 nM and 31.7 nM. The TGI (NCI-H226 lung) was > 33300 nM, the GI50 (NCI-H23 lung) was 34.3 nM and 21.7 nM and the TGI (NCI-H23 lung) was > 33300 nM. For the same compound, the GI50 (NCI-H460 lung) was 3.72 nM and 12 nM, the TGI (NCI-H460 lung) was > 33300 nM and the GI50 (NCI-H522 lung) was 1.38 nM and 3.33 nM. The TGI (NCI-H522 lung) was 5.9 nM and 10.7 nM, the GI50 (NCI/ADR-RES ovarian) was 106 nM and 258 nM and the TGI (NCI/ADR-RES ovarian) was > 33300 nM. The GI50 (OVCAR-3 ovarian) was 3.59 nM and 9.35 nM, the TGI (OVCAR-3 ovarian) was 29.4 nM and the TGI (OVCAR-4 ovarian) was > 33300 nM. For the same compound, the GI50 (OVCAR-5 ovarian) was 11.2 nM and 21.2 nM, the TGI (OVCAR-5 ovarian) was > 33300 nM and the GI50 (OVCAR-8 ovarian) was 11.4 nM and 26.6 nM. The TGI (OVCAR-8 ovarian) was > 33300 nM, the GI50 (PC-3 prostate) was 8.4 nM and 16.8 nM and the TGI (PC-3 prostate) was > 33300 nM. For the same compound, the GI50 (RPMI-8226 leukemia) was 4.98 nM and 14.9 nM, the TGI (RPMI-8226 leukemia) was > 33300 nM and the GI50 (RXF 393 renal) was 9.23 nM. The TGI (RXF 393 renal) was > 33300 nM, the GI50 (SF-268 CNS) was 9.2 nM and 19.7 nM and the TGI (SF-268 CNS) was > 33300 nM. The GI50 (SF-295 CNS) was 4.23 nM and 14.6 nM, the TGI (SF-295 CNS) was > 33300 nM and the GI50 (SF-539 CNS) was 3.94 nM and 12.7 nM. For the same compound, the TGI (SF-539 CNS) was 63.7 nM and 151 nM, the GI50 (SK-MEL-2 melanoma) was 7.62 nM and 10.9 nM and the TGI (SK-MEL-2 melanoma) was > 33300 nM. For the same compound, the GI50 (SK-MEL-28 melanoma) was > 33300 nM, the TGI (SK-MEL-28 melanoma) was > 33300 nM and the GI50 (SK-MEL-5 melanoma) was 3.26 nM and 10.8 nM. The TGI (SK-MEL-5 melanoma) was 118 nM and 348 nM, the GI50 (SK-OV-3 ovarian) was 4.5 nM and 14.8 nM and the TGI (SK-OV-3 ovarian) was > 33300 nM. For the same compound, the GI50 (SN12C renal) was 6.74 nM and 22.5 nM, the TGI (SN12C renal) was > 33300 nM and the GI50 (SNB-19 CNS) was 4.7 nM and 15.2 nM. The TGI (SNB-19 CNS) was > 33300 nM, the GI50 (SNB-75 CNS) was 3.07 nM and 11.9 nM and the TGI (SNB-75 CNS) was > 33300 nM. For the same compound, the GI50 (SR leukemia) was 2.12 nM and 3.33 nM, the TGI (SR leukemia) was > 33300 nM and the GI50 (SW-620 colon) was 4.53 nM and 14.9 nM. The TGI (SW-620 colon) was > 33300 nM, the GI50 (TK-10 renal) was 1050 nM and the TGI (TK-10 renal) was > 33300 nM. For the same compound, the GI50 (U251 CNS) was 4.99 nM and 15.4 nM, the TGI (U251 CNS) was > 33300 nM and the GI50 (UACC-257 melanoma) was > 33300 nM. The TGI (UACC-257 melanoma) was > 33300 nM, the GI50 (UACC-62 melanoma) was 3.82 nM and 15.7 nM and the TGI (UACC-62 melanoma) was > 33300 nM. For the same compound, the GI50 (UO-31 renal) was 68.4 nM and 303 nM and the TGI (UO-31 renal) was > 33300 nM.
